From PMC6534212, “Synthesis and biological evaluation of 3–(4-aminophenyl)-coumarin derivatives as potential anti-Alzheimer’s disease agents” (Journal of Enzyme Inhibition and Medicinal Chemistry, 2019) come the findings set out here.

Usually IC50 stands for the concentration that gives 50% inhibition. Higher therefore signals a need for much substance.

Assay [1] concerns the target T1, AChE from Electrophorus electricus (Electrophorus electricus, UniProt O42275).
T1 construct: purchased Macklin
Put plainly: biochemical. The assay is classed as biochemical. Particulars: for IC50: AChE from Electrophorus electricus, mean ± SD (n=3); for Selectivity AChE/BuChE (in words): verbal summary of SI; for AChE inhibitory activity (in words): verbal summary of Table 2. As for the experimental part: (§1) In the experiment, 0.05 mol/L phosphate buffered saline (PBS) of pH 8.0 was prepared first, and then the following solutions were prepared: 1.5 mmol/L Acetylthiocholine iodide (ATChI); 0.75 mmol/L 5, 5'-Dithiobis-(2-nitrobenzoic acid) (DTNB, Sigma Aldrich, St. Louis, MO); 0.2 U/mL Acetylcholinesterase (AChE, from […], Macklin); 0.5 U/mL Butyrylcholinesterase (BuChE, from equine serum, Aladdin, Shanghai, China); 1.5 mmol/L S-Butyrylthiocholine iodide (BTChI, Sigma Aldrich, St. Louis, MO). 4% sodium dodecyl sulphate (SDS) was prepared with secondary water. […] All solutions were stored in a refrigerator at 4 °C.
(§2) The AChE/BuChE inhibitory activity of the 3–(4-aminophenyl)-coumarin derivatives was determined by the method of Ellaman[28] with slight modifications. The experiment was divided into control group, sample blank group and sample group. Take a series of test tubes, the reagents were loaded in test tubes at the dose of Table 6. After incubation at 37 °C for 20 min, quickly add 1 mL of 4% SDS to stop the reaction. […] All experiments were run in triplicate. The absorbance was determined by UV spectrophotometer, and the inhibition rate of AChE and the IC50 value of each sample were calculated according to the formula. Inhibition rate % = {[(AC−AS)−ASB]/AC} ×100%, where AC (no sample added) is the absorbance of control group; AS is the absorbance of sample group; ASB (add sample solution but no substrate ATChI added) is the absorbance of sample blank group.

Another assay concerns the target T2, BuChE from equine serum (Equus caballus, UniProt P81908).
T2 construct: Butyrylcholinesterase (BuChE, from equine serum, Aladdin, Shanghai, China); purchased Aladdin, Shanghai, China; host or cells: equine serum
Description: biochemical. The assay is classed as biochemical. Particulars: for IC50: BuChE from equine serum, mean ± SD (n=3); for BuChE inhibitory activity (in words): verbal summary of Table 2, comparison with donepezil. The protocol: as §1, §2
The method for determining BuChE is the same as the method for measuring AChE. The sample can be added with reference to Table 6, AChE is changed to BuChE, and the substrate ATChI is changed to substrate BTChI. The order of loading and the amount of loading are the same as Table 6. The absorbance was determined by UV spectrophotometer, and the inhibition rate of BuChE and the IC50 value of each sample were calculated according to the formula. The formula used is the same as AChE.

Assay [2] relates to aluminium trichloride-induced zebrafish juveniles. Description: Effects of compounds on aluminium trichloride-induced behavioural inhibition of zebrafish juveniles (Zebrobox). The conditions noted are these: for Total movement distance: mean ± SE, n=8.
Description: The most suitable modelling concentrations were chosen, and then the effect of the compounds on the behaviour of the aluminium trichloride-induced zebrafish juveniles was explored.
The 72 hpf zebrafish were placed in a petri dish, and the normal developing juveniles were selected under a microscope in a 12-well plate. […] The continuous drug solution was exposed for 3 days. […] Each well was juvenile fish developed to 72 h post-exposure (hpe) and added 0.5 mL of culture water and 8 juveniles were set in each experimental group. The well plate was placed in the dark box of the zebrafish behaviour analysis system. The fish was first adapted to 10 min at the beginning of the experiment. The trajectories of the juveniles in each group were collected using zeblab software for 10 min, recorded every 5 min, and exported by software. Then calculate the total distance of each group of zebrafish juveniles.
The zebrafish with 72 hpf after fertilisation is placed in a petri dish. Under normal conditions, the normal developing juvenile fish are selected in a 12-well plate, and 15 juveniles per hole are set. Control group (0.5% DMSO), model group (5.0 mg/L AlCl3), 5.0 mg/L AlCl3 + test compound 5 μg/mL group, 5.0 mg/L AlCl3 + test compound 10 μg/mL group, 5.0 mg/L AlCl3 + test compound 50 μg/mL group, 5.0 mg/L AlCl3 + test compound 100 μg/mL group, three duplicate wells were set at each concentration. After the administration, the zebrafish was placed in a constant temperature incubator at 28 °C to continue the culture for 3 days. Changing the liquid (aquaculture water) every 24 h and removing dead young fish.

Entries after “also recorded” stand apart in the source; their conditions may differ.

T1 sequence (O42275 24-633): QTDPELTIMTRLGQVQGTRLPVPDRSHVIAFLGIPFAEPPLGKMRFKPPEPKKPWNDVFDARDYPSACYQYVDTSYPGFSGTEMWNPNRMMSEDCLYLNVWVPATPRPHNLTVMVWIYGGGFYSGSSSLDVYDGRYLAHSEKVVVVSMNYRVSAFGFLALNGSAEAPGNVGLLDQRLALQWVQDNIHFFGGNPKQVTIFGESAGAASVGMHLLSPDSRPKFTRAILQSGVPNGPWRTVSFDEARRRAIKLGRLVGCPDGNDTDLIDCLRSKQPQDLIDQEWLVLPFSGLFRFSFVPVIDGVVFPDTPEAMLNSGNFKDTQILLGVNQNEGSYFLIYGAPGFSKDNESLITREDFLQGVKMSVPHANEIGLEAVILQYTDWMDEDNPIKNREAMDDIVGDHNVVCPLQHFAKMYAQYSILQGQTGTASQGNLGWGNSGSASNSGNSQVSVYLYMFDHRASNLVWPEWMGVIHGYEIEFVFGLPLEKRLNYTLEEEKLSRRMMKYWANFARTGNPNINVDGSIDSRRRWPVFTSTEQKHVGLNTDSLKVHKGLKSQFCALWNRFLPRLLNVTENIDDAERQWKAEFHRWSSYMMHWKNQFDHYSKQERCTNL
T2 sequence (P81908 whole entry): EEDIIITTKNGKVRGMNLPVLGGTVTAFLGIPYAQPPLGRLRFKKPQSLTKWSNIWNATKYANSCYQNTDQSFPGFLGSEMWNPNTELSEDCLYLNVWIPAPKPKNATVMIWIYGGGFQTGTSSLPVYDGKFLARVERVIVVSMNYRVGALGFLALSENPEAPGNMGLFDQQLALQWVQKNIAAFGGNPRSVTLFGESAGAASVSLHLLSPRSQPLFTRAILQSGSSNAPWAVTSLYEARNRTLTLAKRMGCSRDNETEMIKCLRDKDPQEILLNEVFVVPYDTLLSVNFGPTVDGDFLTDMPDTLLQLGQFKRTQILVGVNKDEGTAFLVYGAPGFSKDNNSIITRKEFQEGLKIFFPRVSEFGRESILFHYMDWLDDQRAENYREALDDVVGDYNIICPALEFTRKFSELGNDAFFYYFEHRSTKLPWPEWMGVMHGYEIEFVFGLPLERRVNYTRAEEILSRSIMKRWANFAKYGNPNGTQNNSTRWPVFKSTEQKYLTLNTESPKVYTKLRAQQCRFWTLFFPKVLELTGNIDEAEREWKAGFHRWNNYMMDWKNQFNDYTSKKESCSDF

On to `O=C(Nc1ccc(-c2cc3ccc(O)cc3oc2=O)cc1)c1cccc(F)c1` [Compound 4a, 3-[4-(3-fluoro-benzoylamino)-phenyl]-7-hydroxy-coumarin], for which, in assay [1], the IC50 is above 50 µM, the “Selectivity AChE/BuChE (in words)” value is on record as “highly selective for BuChE” and the “AChE inhibitory activity (in words)” value is reported as “no inhibitory activity”. The same compound had a 50% inhibitory concentration (IC50) against BuChE from equine serum of 3.89 ± 0.955 µM.
Take `O=C(Nc1ccc(-c2cc3ccc(O)cc3oc2=O)cc1)c1ccc(F)cc1` [Compound 4b, 3-[4-(4-fluoro-benzoylamino)-phenyl]-7-hydroxy-coumarin]: in assay [1], the 50% inhibitory concentration (IC50) is above 50 µM, the “SI: selectivity index (IC50 BuChE/IC50 AChE)” value (“SI: selectivity index” below) is on record as below 0.050, the “Selectivity AChE/BuChE (in words)” value is “highly selective for BuChE” and the “AChE inhibitory activity (in words)” value is given as “no inhibitory activity”. On BuChE from equine serum, the IC50 worked out at 2.44 ± 0.035 µM and the “BuChE inhibitory activity (in words)” value is on record as “better than donepezil”.
Consider `Cc1ccc(C(=O)Nc2ccc(-c3cc4ccc(O)cc4oc3=O)cc2)cc1` [Compound 4c, 3-[4-(4-methyl-benzoylamino)-phenyl]-7-hydroxy-coumarin], for which the values for the half-maximal inhibitory concentration (IC50) (in assay [1]; on BuChE from equine serum) were above 50 µM and 15.6 ± 1.82 µM, respectively. Besides, the “AChE inhibitory activity (in words)” value in assay [1] was “no inhibitory activity”.
On to `O=C(Nc1ccc(-c2cc3ccc(O)cc3oc2=O)cc1)c1ccc(CCl)cc1` [Compound 4d, 3-[4-(4-chloromethyl-benzoylamino)-phenyl]-7-hydroxy-coumarin], for which, in assay [1], the 50% inhibitory concentration (IC50) was 47.2 ± 3.57 µM and the “SI: selectivity index” value is 0.189. Also, the IC50 against BuChE from equine serum was found to be 8.9 ± 1.18 µM.
Consider `Cc1cccc(C(=O)Nc2ccc(-c3cc4ccc(O)cc4oc3=O)cc2)c1` [Compound 4e, 3-[4-(3-methyl-benzoylamino)-phenyl]-7-hydroxy-coumarin], for which, in assay [1], the concentration for half-maximal inhibition (IC50) is above 50 µM, the “SI: selectivity index” value is listed as below 0.211 and the “AChE inhibitory activity (in words)” value is reported as “no inhibitory activity”. For the same compound, the concentration for half-maximal inhibition (IC50) against BuChE from equine serum is 10.6 ± 0.132 µM.
Take `O=C(Nc1ccc(-c2cc3ccc(O)cc3oc2=O)cc1)c1cccc(Cl)c1` [Compound 4f, 3-[4-(3-chloro-benzoylamino)-phenyl]-7-hydroxy-coumarin]: the IC50 in assay [1] amounted to 1.94 ± 0.141 µM; against BuChE from equine serum it was 2.56 ± 0.275 µM. The “SI: selectivity index” value in assay [1] is on record as 1.319. In assay [1], the “AChE inhibitory activity (in words)” value is listed as “moderate to excellent AChE inhibitory activity”. Moreover, the “BuChE inhibitory activity (in words)” value at BuChE from equine serum is reported as “better than donepezil”. Besides, the Total movement distance is on record as 205.7 ± 4.5 cm in assay [2] (5 mg/L compound + 5.0 mg/L AlCl3, 3 days); 223.2 ± 16.4 cm in assay [2] (10 mg/L compound + 5.0 mg/L AlCl3, 3 days); 236 ± 11.5 cm in assay [2] (50 mg/L compound + 5.0 mg/L AlCl3, 3 days); 244.8 ± 13.6 cm in assay [2] (100 mg/L compound + 5.0 mg/L AlCl3, 3 days). Also, the “Effect on behavioural inhibition of zebrafish induced by aluminium trichloride (in words)” value in assay [2] (compared with the model group) is “certain therapeutic effects; also recorded: could alleviate the behavioural inhibition symptoms”.
As to `O=C(Nc1ccc(-c2cc3ccc(O)cc3oc2=O)cc1)c1ccccc1F` [Compound 4g, 3-[4-(2-fluoro-benzoylamino)-phenyl]-7-hydroxy-coumarin], in assay [1], the half-inhibitory concentration (IC50) was above 50 µM, the “SI: selectivity index” value is on record as below 0.489 and the “AChE inhibitory activity (in words)” value was “no inhibitory activity”. At BuChE from equine serum, this compound returned a concentration for half-maximal inhibition (IC50) of 24.5 ± 0.535 µM.
With `O=C(Nc1ccc(-c2cc3ccc(O)cc3oc2=O)cc1)c1ccc(Cl)cc1` [Compound 4h, 3-[4-(4-chloro-benzoylamino)-phenyl]-7-hydroxy-coumarin], in assay [1], the 50% inhibitory concentration (IC50) is above 50 µM, the “SI: selectivity index” value was below 0.078, the “Selectivity AChE/BuChE (in words)” value is given as “highly selective for BuChE” and the “AChE inhibitory activity (in words)” value is reported as “no inhibitory activity”. Further, the IC50 against BuChE from equine serum worked out at 3.88 ± 0.191 µM.
`Cc1cc(C)cc(C(=O)Nc2ccc(-c3cc4ccc(O)cc4oc3=O)cc2)c1` [Compound 4i, 3-[4-(3,5-dimethyl-benzoylamino)-phenyl]-7-hydroxy-coumarin]: in assay [1], the IC50 was above 50 µM, the “SI: selectivity index” value was below 0.045, the “Selectivity AChE/BuChE (in words)” value is on record as “highly selective for BuChE” and the “AChE inhibitory activity (in words)” value is “no inhibitory activity”. Also, at BuChE from equine serum, half-maximal inhibition (IC50) was put at 2.26 ± 0.225 µM and the “BuChE inhibitory activity (in words)” value is listed as “better than donepezil”.
As to `COc1cccc2cc(-c3ccc(NC(=O)c4cccc(Cl)c4)cc3)c(=O)oc12` [Compound 4n, 3-[4-(3-chloro-benzoylamino)-phenyl]-8-methoxy-coumarin], in assay [1], the half-inhibitory concentration (IC50) is above 50 µM and the “SI: selectivity index” value is below 0.020. At BuChE from equine serum, the IC50 is 0.951 ± 0.159 µM and the “BuChE inhibitory activity (in words)” value is reported as “better than donepezil”.
For the compound `COc1cccc2cc(-c3ccc(NC(=O)c4cccc(C)c4)cc3)c(=O)oc12` [Compound 4o, 3-[4-(3-methyl-benzoylamino)-phenyl]-8-methoxy-coumarin], in assay [1], the IC50 is 8.26 ± 0.581 µM, the “SI: selectivity index” value is given as above 6.054, the “Selectivity AChE/BuChE (in words)” value was “highly selective for AChE” and the “AChE inhibitory activity (in words)” value is reported as “moderate to excellent AChE inhibitory activity”. The IC50 on BuChE from equine serum was above 50 µM.
As for `COc1cccc2cc(-c3ccc(NC(=O)c4ccccc4F)cc3)c(=O)oc12` [Compound 4p, 3-[4-(2-fluoro-benzoylamino)-phenyl]-8-methoxy-coumarin], in assay [1], the half-maximal inhibitory concentration (IC50) turned out to be 48.9 ± 2.32 µM and the “SI: selectivity index” value is listed as 0.326. Moreover, inhibition at BuChE from equine serum was half-maximal at 16 ± 0.475 µM (IC50).
Taken in the same sequence, the figures for `COc1ccccc1C(=O)Nc1ccc(-c2cc3cccc(OC)c3oc2=O)cc1` [Compound 4q, 3-[4-(2-methoxy-benzoylamino)-phenyl]-8-methoxy-coumarin] were 48.2 ± 3.13 µM, above 1.037 and above 50 µM.
On to `O=C(Nc1ccc(-c2cc3ccc(O)c(O)c3oc2=O)cc1)c1ccc(CCl)cc1` [Compound 4s, 3-[4-(4-Chloromethyl-benzoylamino)-phenyl]-7,8-dihydroxy-coumarin], for which, in assay [1], half-maximal inhibition (IC50) required 48.2 ± 2.69 µM and the “SI: selectivity index” value is above 1.037. This compound also returned an IC50 at BuChE from equine serum above 50 µM.
Consider `COc1cccc2cc(-c3ccc(NC(=O)c4ccco4)cc3)c(=O)oc12` [Compound 5b, 3-[4-(furan-2-formylamino)-phenyl]-8-methoxy-coumarin], for which the IC50 in assay [1] was found to be 47.1 ± 1.59 µM; at BuChE from equine serum it was 4.62 ± 0.055 µM. The “SI: selectivity index” value in assay [1] is on record as 0.098.
Turning to `O=C(Nc1ccc(-c2cc3ccc(O)cc3oc2=O)cc1)c1cccc2ccccc12` [Compound 6a, 3-[4-(1-naphthoylamino)-phenyl]-7-hydroxy-coumarin], in assay [1], half-maximal inhibition (IC50) required 19.1 ± 0.981 µM and the “SI: selectivity index” value is above 2.612. For the same compound, the IC50 against BuChE from equine serum was above 50 µM.
Turning to `COc1cccc2cc(-c3ccc(NC(=O)c4cccc5ccccc45)cc3)c(=O)oc12` [Compound 6b, 3-[4-(1-naphthoylamino)-phenyl]-8-methoxy-coumarin], the IC50 (in assay [1]; against BuChE from equine serum) was above 50 µM throughout.
Compound `O=C(Nc1ccc(-c2cc3ccc(O)cc3oc2=O)cc1)c1ccc2ccccc2c1` [Compound 7a, 3-[4-(2-naphthoylamino)-phenyl]-7-hydroxy-coumarin] displayed an IC50 in assay [1] above 50 µM. Also, at BuChE from equine serum, the concentration for half-maximal inhibition (IC50) was determined as 2.07 ± 0.045 µM and the “BuChE inhibitory activity (in words)” value was “better than donepezil”.
`COc1cccc2cc(-c3ccc(NC(=O)c4ccc(Cl)nc4)cc3)c(=O)oc12` [Compound 7c, 3-[4-(6-chloro-N-nicotinamide)-phenyl]-8-methoxy-coumarin]: in assay [1], the IC50 was determined as 19.2 ± 1.64 µM and the “SI: selectivity index” value worked out at 0.176. The compound further had an IC50 against BuChE from equine serum of 3.38 ± 0.342 µM.
